Measurements from paper PMC12284294 (iScience, 2025).
Read-outs that look alike come from different tables or passages of the source. Ends that are not written are not given here.

T1: FPR1 (Homo sapiens, UniProt P21462)
T1 construct: expressed in transfected cells; host or cells: HEK293T
T1 sequence (P21462 1-350): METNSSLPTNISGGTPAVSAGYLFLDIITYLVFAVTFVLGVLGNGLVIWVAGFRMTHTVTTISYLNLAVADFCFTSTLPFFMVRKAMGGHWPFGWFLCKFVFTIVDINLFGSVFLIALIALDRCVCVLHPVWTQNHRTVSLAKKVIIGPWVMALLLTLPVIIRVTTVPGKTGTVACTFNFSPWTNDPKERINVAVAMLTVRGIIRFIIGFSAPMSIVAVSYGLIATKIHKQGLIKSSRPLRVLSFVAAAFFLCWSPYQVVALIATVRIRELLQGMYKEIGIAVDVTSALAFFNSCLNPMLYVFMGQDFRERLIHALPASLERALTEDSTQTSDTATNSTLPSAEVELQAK

T2: Formyl peptide receptor 1 (human, UniProt P21462 1-350)
T2 chain: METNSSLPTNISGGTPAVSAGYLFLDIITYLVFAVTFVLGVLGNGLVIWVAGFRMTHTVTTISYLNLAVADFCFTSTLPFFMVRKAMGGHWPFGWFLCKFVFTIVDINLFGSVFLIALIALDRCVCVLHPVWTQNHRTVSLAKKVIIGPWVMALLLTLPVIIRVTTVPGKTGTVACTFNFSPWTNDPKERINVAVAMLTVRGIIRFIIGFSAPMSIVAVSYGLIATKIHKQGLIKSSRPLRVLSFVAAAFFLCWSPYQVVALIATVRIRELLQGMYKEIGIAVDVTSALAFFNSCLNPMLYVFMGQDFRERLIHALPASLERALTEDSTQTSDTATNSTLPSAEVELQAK

T3: Formyl peptide receptor 2 (human, UniProt P25090 1-351)
T3 chain: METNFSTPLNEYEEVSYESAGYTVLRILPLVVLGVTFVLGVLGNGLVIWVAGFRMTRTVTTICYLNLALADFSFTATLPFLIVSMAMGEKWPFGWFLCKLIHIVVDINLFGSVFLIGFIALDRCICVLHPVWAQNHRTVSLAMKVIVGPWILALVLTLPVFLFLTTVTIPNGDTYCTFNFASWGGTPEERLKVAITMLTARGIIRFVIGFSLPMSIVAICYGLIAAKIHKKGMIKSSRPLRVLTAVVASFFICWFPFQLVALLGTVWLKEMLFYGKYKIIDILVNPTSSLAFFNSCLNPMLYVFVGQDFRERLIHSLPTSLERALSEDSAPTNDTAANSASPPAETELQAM

T4: Formyl peptide receptor 3 (human, UniProt P25089 1-353)
T4 chain: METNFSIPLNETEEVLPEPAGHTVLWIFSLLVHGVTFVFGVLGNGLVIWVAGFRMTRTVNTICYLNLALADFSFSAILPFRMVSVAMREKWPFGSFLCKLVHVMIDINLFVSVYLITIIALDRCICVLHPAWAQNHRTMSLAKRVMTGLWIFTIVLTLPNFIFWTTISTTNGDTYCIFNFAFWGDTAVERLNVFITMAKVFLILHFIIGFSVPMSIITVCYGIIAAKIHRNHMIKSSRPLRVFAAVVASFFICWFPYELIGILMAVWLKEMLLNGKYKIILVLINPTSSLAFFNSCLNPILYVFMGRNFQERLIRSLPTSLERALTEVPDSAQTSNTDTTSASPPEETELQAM

T5: Formyl peptide receptor 3 (human, UniProt P25089 1-353)
T5 sequence (looked up): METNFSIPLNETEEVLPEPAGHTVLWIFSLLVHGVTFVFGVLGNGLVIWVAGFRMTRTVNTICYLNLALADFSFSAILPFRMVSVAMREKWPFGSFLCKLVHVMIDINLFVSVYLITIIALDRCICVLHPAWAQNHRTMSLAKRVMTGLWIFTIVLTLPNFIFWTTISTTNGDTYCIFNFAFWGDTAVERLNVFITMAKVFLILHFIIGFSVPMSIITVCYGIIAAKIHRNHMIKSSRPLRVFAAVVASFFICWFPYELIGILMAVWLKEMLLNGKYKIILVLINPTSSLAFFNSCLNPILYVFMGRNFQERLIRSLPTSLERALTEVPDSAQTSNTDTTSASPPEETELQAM

T6: Formyl peptide receptor 2 (human, UniProt P25090 1-351)
T6 sequence (looked up): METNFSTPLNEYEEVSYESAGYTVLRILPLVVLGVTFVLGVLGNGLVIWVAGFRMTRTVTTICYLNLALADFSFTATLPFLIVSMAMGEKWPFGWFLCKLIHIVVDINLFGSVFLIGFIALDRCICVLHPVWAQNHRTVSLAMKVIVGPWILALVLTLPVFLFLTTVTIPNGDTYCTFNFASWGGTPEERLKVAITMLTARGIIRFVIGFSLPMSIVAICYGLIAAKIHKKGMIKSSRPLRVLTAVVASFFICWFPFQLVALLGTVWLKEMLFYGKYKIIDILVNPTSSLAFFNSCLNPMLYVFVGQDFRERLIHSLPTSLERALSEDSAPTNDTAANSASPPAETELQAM

T7: Formyl peptide receptor 1 (human, UniProt P21462 1-350)
T7 sequence (looked up): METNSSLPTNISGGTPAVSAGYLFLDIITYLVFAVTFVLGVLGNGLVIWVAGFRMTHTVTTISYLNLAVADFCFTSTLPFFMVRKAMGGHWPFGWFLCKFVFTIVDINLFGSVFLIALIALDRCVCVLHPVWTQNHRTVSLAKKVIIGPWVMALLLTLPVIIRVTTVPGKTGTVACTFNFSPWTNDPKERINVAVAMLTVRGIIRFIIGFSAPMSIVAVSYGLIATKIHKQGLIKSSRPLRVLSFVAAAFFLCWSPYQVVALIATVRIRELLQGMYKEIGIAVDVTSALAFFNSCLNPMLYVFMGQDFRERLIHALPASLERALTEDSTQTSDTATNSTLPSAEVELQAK


Experiments:
FPR1 = target: T1, FPR1; type: cell-based
[1] = system: human polymorphonuclear granulocytes (PMN; neutrophils); type: cell-based; conditions: SARS-CoV-2 omicron B.1.1.529 spike pool peptides, 10 µM, PMN, n=6
FPR1, FPR2, FPR3, PMN = type: cell-based, human
[2] = target: T2, Formyl peptide receptor 1
[3] = target: T3, Formyl peptide receptor 2
[4] = target: T4, Formyl peptide receptor 3
[5] = target: T2, Formyl peptide receptor 1
[6] = target: T3, Formyl peptide receptor 2
[7] = target: T4, Formyl peptide receptor 3
[8] = target: T5, Formyl peptide receptor 3; conditions: one partner purified
[9] = target: T6, Formyl peptide receptor 2; conditions: one partner purified
[10] = target: T7, Formyl peptide receptor 1; conditions: one partner purified

| Molecule | non-activators of FPR1 and PMNs: FPR1 (FPR1) | non-activators of FPR1 and PMNs: PMNs [1] | further results |
| --- | --- | --- | --- |
| VAVLYQGVNCTEVPV | non-activators of FPR1 and PMNs | non-activators of FPR1 and PMNs | – |
| VLNDIFSRLDKVEAE | non-activators of FPR1 and PMNs | non-activators of FPR1 and PMNs | – |
| VLPFNDGVYFASIEK | non-activators of FPR1 and PMNs | non-activators of FPR1 and PMNs | – |
| VLPFNDGVYFASIEKSNIIRGWIFGTT | – | – | Match with activator (region): Receptor (FPR1, FPR2, FPR3, PMN): FPR3 |
| VNHNAQALNTLVKQL | non-activators of FPR1 and PMNs | non-activators of FPR1 and PMNs | – |
| VNHNAQALNTLVKQLSSKFGAISSVLNDIFS | – | – | Match with activator (region): Receptor (FPR1, FPR2, FPR3, PMN): FPR3 |
| WNSNKLDSKVSGNYN | non-activators of FPR1 and PMNs | non-activators of FPR1 and PMNs | – |
| YFASIEKSNIIRGWI | non-activators of FPR1 and PMNs | non-activators of FPR1 and PMNs | – |
| YFGGFNFSQILPDPS | non-activators of FPR1 and PMNs | non-activators of FPR1 and PMNs | – |
| YGSFCTQLKRALTGI | non-activators of FPR1 and PMNs | non-activators of FPR1 and PMNs | – |
| YQGVNCTEVPVAIHA | non-activators of FPR1 and PMNs | non-activators of FPR1 and PMNs | – |
| EQYIKWPWYVWL (also: fluorescently labeled) [fluorescently labeled SARS-CoV MPR peptide CV3] | – | – | Kd [2]: 7.3 nM; Kd [3]: 337 nM; Kd [4]: 756 nM |
| MYVKWPWYVWLL (also: fluorescently labeled) [fluorescently labeled N-terminally truncated HCoV-HKU-1 MPR peptide CV2∗] | – | – | Kd [5]: 66.9 nM; Kd [6]: > 1000 nM; Kd [7]: > 1000 nM; fold lower binding affinity than the other MPR peptides [8]: ~10 fold; fold lower binding affinity than the other MPR peptides [9]: ~10 fold; fold lower binding affinity than the other MPR peptides [10]: ~10 fold |
| ETYIKWPWWVWL (also: fluorescently labeled) [fluorescently labeled HCoV-229E MPR peptide CV1] | – | – | Kd [2]: 8.4 nM; Kd [3]: 287 nM; Kd [4]: 366 nM |
